Laboratory results reported in US12268739B2, “Use of toll-like receptor 2 (TLR-2) agonist for modulating human immune response” (Children's Medical Center Corporation, priority 2018, dated 2025).
“Also recorded” adds a separate entry of the source.

Columns and labels:
human adult PBMCs = assay: Cytokine production by stimulated human adult PBMCs (ELISA / multiplex); assay type: cell-based; details: for Adult PBMCs (median ng/ml) IL-6 (N = 7) / Adult PBMCs (median ng/ml) TNFa (N = 13): human adult PBMCs, compounds at 100 µM (FIG. 7), ELISA
Procedure: ELISAs and Multiplex-Analyte Assays. Supernatants derived from human PBMCs stimulations were assayed by ELISA for TNF and IL-6 (ThermoFisher Scientific; Waltham, MA, USA). Cytokine and chemokine expression profiles (e.g., IFNγ, IL-9, IL-10, IL-12 (p70), IL-13, IL-1β, IL-23, IL-27, IL-28A, IL-33, IL-6, MIP-3α/CCL20, and TNF) in cell culture supernatants were measured using a customized Milliplex® Human Th17 Magnetic Bead Panel according to the manufacturer's instructions (Millipore, Chicago, IL, USA). Assays were read and analyzed on the Luminex® 100/200TM System and xPOTENT® software (Luminex, Austin, TX). A minimum threshold was set at the minimum detectable concentration for each individual assay, defined as three standard deviations above the mean background.
PBMCs were isolated from blood using a Ficoll density gradient. PBMCs either used fresh or were stored at 5×10^7 cells per vial in 1 mL RPMI containing 20% autologous plasma and 10% DMSO at −80° C. until use. […] PBMCs isolated from human adult donors or THP1-NF-κB cells were resuspended at a concentration of 10^5 cells/200 μl of RPMI supplemented with 10% of platelet-poor plasma or THP1 culture medium, respectively. […] After 24 hours of incubation (37° C., 5% CO2), plates were spun down (500×g, room temperature, 5 minutes) and supernatants were harvested for further analysis.

THP1-NF-κB cells = assay: THP1-NF-κB cell stimulation for 24 hours, secreted luciferase luminescence; assay type: cell-based, human; details: for THP1 cells (relative luminescence units, N = 4) Comp at 25 uM / THP1 cells (relative luminescence units, N = 4) Comp at 100 uM: NF-κB-dependent luminescence, 24 hours; for THP1 cells (relative luminescence units, N = 4) Comp at 25 uM: compound at 25 uM; for THP1 cells (relative luminescence units, N = 4) Comp at 100 uM: compound at 100 uM
Procedure: (§1) THP-1 Cell Line and Culture Conditions. The THP1-Lucia™ cell line was obtained from Invivogen (San Diego, CA). THP1-Lucia cells, which are human monocytic cells derived from the blood of a child with leukemia, contain an NF-kB-inducible Luc reporter construct. This allows NF-kB activation to be measured by quantifying the luminescence from the secreted luciferase enzyme. THP1-Lucia cells were cultured in RPMI 1640 supplemented with 10% non-heat inactivated fetal bovine serum (FBS), 10 mM HEPES, 1.0 mM sodium pyruvate, 50 ug/ml Pen-Strep, and 100 ug/mL Normocin™. Once cultured, the cells were stored in a 37° C. incubator with 5% CO2 and a humidified atmosphere. Cells were passaged every 2-3 days and not allowed to exceed a concentration of 2.0×10^6 cells/ml media.
PBMCs were isolated from blood using a Ficoll density gradient. PBMCs either used fresh or were stored at 5×10^7 cells per vial in 1 mL RPMI containing 20% autologous plasma and 10% DMSO at −80° C. until use. Stimulation plates were prepared by transferring 0.66 μl of DMSO-dissolved compounds (30 or 7.5 mM) to each well of a round bottom 96-well plate. PBMCs isolated from human adult donors or THP1-NF-κB cells were resuspended at a concentration of 10^5 cells/200 μl of RPMI supplemented with 10% of platelet-poor plasma or THP1 culture medium, respectively. 200 μl of the cell suspension were transferred to each well resulting in a final compound concentration of 100 or 25 μM. After 24 hours of incubation (37° C., 5% CO2), plates were spun down (500×g, room temperature, 5 minutes) and supernatants were harvested for further analysis.

[1] = system: NF-κB reporter THP1 cells; assay: NF-kB-induced luminescence HTS in THP1-Lucia cells (384-well); assay type: cell-based, human; details: ranked at 3.3 μM; ~200,000 compounds tested
Text: HTS Overview: To identify immunomodulators/adjuvants that robustly activate human immune cells, ˜200,000 small molecules were screening in a THP1 cell-based assay. The chemical libraries screened included known bioactive and commercial libraries from various sources including commercial libraries such as ChemDiv, ChemBridge, and Asinex. All libraries were owned and provided by the Institute of Chemistry and Cell Biology (ICCB)—Longwood (Harvard Medical School). The project primary screen incorporated two distinct arms: a) a luciferase-based screen which corresponds to the relative activation of the NF-κB reporter; and b) a fluorescence-based screen, corresponding to the phenotypic adherence, a distinct marker of cell activation, of the human monocytic THP-1 cell lines. Described herein are small molecules identified in the screen that induce NF-kB activity based on a luciferase-based THP-1 cell screen.
as §1
NF-kB-induced Luminescence Assay. THP1-Lucia cells between passage 15 and 18 and suspended in culture medium were dispensed into 384-well black clear-bottom plates (Corning 3712) at 30,000 cells/30 μl/well using a Combi liquid dispenser. To allow comparison to a benchmark small molecule with known immune stimulating activity, cells at the same concentration were stimulated with 50 μM R848, a TLR7/8 agonist, in 0.3% DMSO and added to every other well of column 24, which was left empty of cells, by multichannel pipette at the same volume. Five μl of 700 nM Phorbol myristate acetate (PMA) in THP1 culture media and 2.3% DMSO, a known peripheral blood cell mitogen, was added to every other well of column 23 by multichannel pipette (final concentration in well: 100 nM in 0.3% DMSO). Five μl of THP1 culture media with 2.3% DMSO was added to the remaining wells of column 23 by multichannel pipette (final concentration 0.3% DMSO). One hundred nl aliquots of library compounds diluted in 100% DMSO were transferred from their original 384-well plates to the assay plates using a Seiko pin transfer machine. Each library plate was pinned in duplicate, yielding two assay plates with identical conditions for comparison. Plates were then incubated for 24 hours at 37 C with 5% CO2 in humid conditions. Following incubation, 10 μL of supernatant was removed from each well and transferred to a white plate (Corning 3570) using a Vprep liquid transfer machine. 10 μL of recombinant Lucia protein (Invivogen) diluted 1:2000 in THP1 culture media was added to empty well 24P. Using a Combi liquid dispenser, 50 μL/well of Quanti-Luc substrate (Invivogen) diluted 1:3 in sterile water was added to the assay plate. Immediately after adding the substrate, the luminescence was read using a PerkinElmer Envision plate reader.

human TLR2 [2] = target: T1, human TLR2 (Homo sapiens, UniProt O60603); assay: HEK-Blue human TLR cell screening (NF-κB SEAP reporter); assay type: cell-based; details: compounds at 10 μM, fold change over negative controls
T1 construct: expressed in transfected cells; host or cells: HEK-Blue (human embryonic kidney) cells with an NF-kB-inducible SEAP reporter
Procedure: HEK cell screening. Human embryonic kidney (HEK)-Blue cell lines expressing human TLRs (hTLRs) and a secreted embryonic alkaline phosphatase (SEAP) reporter under the control of an NF-κB-inducible promoter were cultured in 96-well plates (50,000-75,000 cells/200 μl/well) and stimulated with the indicated compounds at 10 µM or positive controls. The media added to the wells is designed for detection of NF-κB-induced SEAP expression. After 16-24 hours of incubation optical density (OD) was read at 650 nm on a Molecular Devices SpectraMax 340PC absorbance detector. Positive controls employed in this assay were: heat-killed Listeria monocytogenes (1×10^8 cells/ml) for hTLR2, Poly (I:C) HMW (1 μg/ml) for hTLR3, ? E. coli K12 LPS (100 ng/ml) for hTLR4, S. typhimurium flagellin (100 ng/ml) for hTLR5, CL307 (1 μg/ml) for hTLR7, CL075 (1 μg/ml) for hTLR8 and CpG ODN 2006 (1 μg/ml) for hTLR9.

human TLR2 [3] = target: T1, human TLR2; assay: HEK293 assay for human TLR2 selectivity (NF-κB/SEAP); assay type: cell-based; details: 18-24 hours stimulation, titratable
Procedure: (§2) HEK293 assay for human TLR2 and TLR8 selectivity: Human embryonic kidney (HEK) 293 cells expressing human TLR2 or TLR8 with an NF-κB-responsive secreted embryonic alkaline phosphatase (SEAP) reporter gene were obtained from Invivogen (San Diego, CA). Cells were maintained in RPMI or DMEM with 10% heat inactivated-FBS and selection antibiotics per the manufacturer's instructions. Cells were plated at 5×10^5 cells/96-well and stimulated with indicated agonist(s) for 24 hours. Supernatants were harvested and analyzed for NF-κB/SEAP activation using the QuantiBlue kit (Invivogen). Values are expressed as fold change in OD650 over vehicle-only treated samples.

human TLR8 = target: T2, human TLR8 (Homo sapiens, UniProt Q9NR97); assay: HEK293 assay for human TLR8 selectivity (NF-κB/SEAP); assay type: cell-based; details: selectivity counter-assay
T2 construct: host or cells: HEK293 cells with an NF-kB-responsive SEAP reporter gene
T2 sequence (Q9NR97 27-1041): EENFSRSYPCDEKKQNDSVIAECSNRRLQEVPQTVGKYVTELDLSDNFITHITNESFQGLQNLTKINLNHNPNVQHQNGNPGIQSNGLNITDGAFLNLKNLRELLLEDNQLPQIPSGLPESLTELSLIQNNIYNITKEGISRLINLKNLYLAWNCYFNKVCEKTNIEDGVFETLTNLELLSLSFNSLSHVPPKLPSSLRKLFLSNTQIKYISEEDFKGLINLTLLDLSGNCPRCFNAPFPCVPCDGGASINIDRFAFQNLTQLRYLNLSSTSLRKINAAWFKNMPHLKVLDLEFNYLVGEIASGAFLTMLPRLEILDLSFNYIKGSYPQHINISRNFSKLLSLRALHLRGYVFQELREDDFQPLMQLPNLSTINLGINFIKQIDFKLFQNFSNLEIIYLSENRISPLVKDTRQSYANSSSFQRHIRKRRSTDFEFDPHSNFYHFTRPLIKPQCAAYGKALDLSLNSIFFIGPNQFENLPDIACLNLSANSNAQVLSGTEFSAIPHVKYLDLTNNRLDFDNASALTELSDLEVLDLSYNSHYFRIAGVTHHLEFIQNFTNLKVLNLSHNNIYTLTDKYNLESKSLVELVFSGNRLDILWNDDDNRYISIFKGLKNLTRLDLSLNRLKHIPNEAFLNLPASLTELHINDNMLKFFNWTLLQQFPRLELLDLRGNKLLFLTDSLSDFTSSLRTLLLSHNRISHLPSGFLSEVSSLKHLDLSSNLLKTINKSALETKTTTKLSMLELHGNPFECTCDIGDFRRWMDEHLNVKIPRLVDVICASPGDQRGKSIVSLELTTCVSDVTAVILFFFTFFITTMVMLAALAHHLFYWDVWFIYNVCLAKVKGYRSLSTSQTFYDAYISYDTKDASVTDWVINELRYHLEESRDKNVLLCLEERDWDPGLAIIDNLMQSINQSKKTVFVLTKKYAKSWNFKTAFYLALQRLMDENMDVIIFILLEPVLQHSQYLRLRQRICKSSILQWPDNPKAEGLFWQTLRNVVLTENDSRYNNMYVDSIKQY
Procedure: as §2

T1 sequence (O60603 21-784): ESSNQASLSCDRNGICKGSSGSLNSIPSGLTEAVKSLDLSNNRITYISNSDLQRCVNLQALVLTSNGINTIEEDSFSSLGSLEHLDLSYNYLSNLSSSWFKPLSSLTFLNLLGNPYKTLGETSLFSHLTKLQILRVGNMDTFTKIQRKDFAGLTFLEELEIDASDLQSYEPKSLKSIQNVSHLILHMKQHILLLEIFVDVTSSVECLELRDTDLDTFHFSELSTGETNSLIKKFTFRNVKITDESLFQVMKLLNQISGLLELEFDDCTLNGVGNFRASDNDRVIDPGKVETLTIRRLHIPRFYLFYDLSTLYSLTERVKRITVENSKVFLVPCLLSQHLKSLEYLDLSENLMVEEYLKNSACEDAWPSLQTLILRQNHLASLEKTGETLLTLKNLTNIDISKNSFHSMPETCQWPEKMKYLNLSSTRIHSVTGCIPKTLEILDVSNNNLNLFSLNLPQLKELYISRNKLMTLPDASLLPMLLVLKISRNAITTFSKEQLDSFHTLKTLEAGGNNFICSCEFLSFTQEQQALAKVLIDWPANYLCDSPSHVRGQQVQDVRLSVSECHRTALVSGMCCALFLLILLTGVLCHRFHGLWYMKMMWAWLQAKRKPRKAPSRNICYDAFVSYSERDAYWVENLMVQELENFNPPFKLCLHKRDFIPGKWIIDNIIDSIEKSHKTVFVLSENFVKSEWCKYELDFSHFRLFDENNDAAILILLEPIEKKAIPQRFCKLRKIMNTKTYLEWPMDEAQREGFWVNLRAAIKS

| Compound | TLR2 activation in HEK TLR2 cells (SEAP) (human TLR2 [3]) | TLR8 induction in HEK TLR8 cells (SEAP) (human TLR8) | Activation of human adult PBMCs (cytokine levels by multiplex assay) (human adult PBMCs; 384-well plates, 24 hours, 0.05-33 μM) | Activation of human adult PBMCs (human adult PBMCs; 384 and 96 well assay) | Activation of THP1 cells (THP1-NF-κB cells; 384 and 96 well assay) | Efficacy in activating NF-κB in THP1 cells (screening hits) [1] | Activation of human TLR2 (NF-κB activation in TLR-expressing HEK-Blue cells) (human TLR2 [2]) | Adult PBMCs (median ng/ml) IL-6 (N = 7) (human adult PBMCs; 24 hours) [ng/mL] | Adult PBMCs (median ng/ml) TNFa (N = 13) (human adult PBMCs; 24 hours) [ng/mL] | THP1 cells (relative luminescence units, N = 4) Comp at 25 uM (THP1-NF-κB cells) | THP1 cells (relative luminescence units, N = 4) Comp at 100 uM (THP1-NF-κB cells) |
| --- | --- | --- | --- | --- | --- | --- | --- | --- | --- | --- | --- |
| COC(=O)c1c(NC(=O)CN2CCC3(CC2)OCCO3)sc2c1CCCC2 [Compound 004] | – | – | activates human adult PBMCs in a concentration-dependent manner | induced activation | induced activation of THP1 cells | most effective NF-κB activators; also recorded: most effective NF-kB activators | activate human TLR2; also recorded: activated the human TLR2-expressing human embryonic kidney (HEK)-Blue cell line | – | – | – | – |
| CCOC(=O)c1c(NC(=S)Nc2ccccc2OC)sc2c1CC(C)(C)OC2 [Compound 070] | – | – | – | – | – | most effective | activate human TLR2 | – | – | – | – |

Second part, led by results:

| TLR2 activation in HEK TLR2 cells (SEAP) (human TLR2 [3]) | TLR8 induction in HEK TLR8 cells (SEAP) (human TLR8) | Compound | Activation of human adult PBMCs (cytokine levels by multiplex assay) (human adult PBMCs; 384-well plates, 24 hours, 0.05-33 μM) | Activation of human adult PBMCs (human adult PBMCs; 384 and 96 well assay) | Activation of THP1 cells (THP1-NF-κB cells; 384 and 96 well assay) | Efficacy in activating NF-κB in THP1 cells (screening hits) [1] | Activation of human TLR2 (NF-κB activation in TLR-expressing HEK-Blue cells) (human TLR2 [2]) | Adult PBMCs (median ng/ml) IL-6 (N = 7) (human adult PBMCs; 24 hours) [ng/mL] | Adult PBMCs (median ng/ml) TNFa (N = 13) (human adult PBMCs; 24 hours) [ng/mL] | THP1 cells (relative luminescence units, N = 4) Comp at 25 uM (THP1-NF-κB cells) | THP1 cells (relative luminescence units, N = 4) Comp at 100 uM (THP1-NF-κB cells) |
| --- | --- | --- | --- | --- | --- | --- | --- | --- | --- | --- | --- |
| induced TLR2 specific activation | without induction of TLR8 | CNC(=O)c1c(NC(=O)c2ccc(S(=O)(=O)N(C)C)cc2)sc2c1CCCC2 [Compound 80.3] | – | – | – | – | – | 0.008 | 0.008 | 2835 relative luminescence units | 3630 relative luminescence units |
| induced TLR2 specific activation | without induction of TLR8 | CNC(=O)c1c(NC(=O)c2ccc(S(=O)(=O)N3CCCC3)cc2)sc2c1CCC2 [Compound 80.10] | – | – | – | – | – | 0.012 | 0.008 | 3576 relative luminescence units | 4814 relative luminescence units |
| induced TLR2 specific activation | without induction of TLR8 | CNC(=O)c1c(NC(=O)c2ccc(S(=O)(=O)N(C)C)cc2)sc(C)c1C [Compound 80.15] | – | – | – | – | – | 0.008 | 0.0225 | 6369 relative luminescence units | 9715 relative luminescence units |
